This note sets out measurements from PubChem BioAssay AID1996.

SMILES strings stand for the structures. ≈ marks a conversion by molar mass, not a printed value.

The conditions of the series: buffer; pH 7.4; 200.0 µM.
As usually defined, the kinetic solubility is solubility judged after dilution from a stock solution rather than from solid. Regarding `Cc1cc(C(=O)NC2CCCc3ccccc32)ccc1[N+](=O)[O-]` (centres undefined), the kinetic solubility was 10.3 µg/mL (≈ 33.2 µM).

The molecule `O=c1c(Cc2c(F)cccc2Cl)c(O)ccn1C1CC1` returned a solubility (kinetic) of over 44.1 µg/mL.

`CC1=C([N+](=O)[O-])C(c2ccccc2)NC(=O)N1` (centres undefined) displayed a solubility (kinetic) of over 35 µg/mL.

In turn, `COc1ccc(CN2C(=O)CNC2=S)cc1` gave a kinetic solubility of over 35.4 µg/mL.

In turn, `O=c1cc(-c2ccco2)nc(SCc2cccc(Cl)c2)[nH]1` gave a solubility (kinetic) of 0.6 µg/mL (≈ 1.88 µM).

Molecule `O=C(NC(=S)N1CCN(C/C=C/c2ccccc2)CC1)c1cccnc1` registered a solubility (kinetic) of over 55 µg/mL.

`S=c1[nH]c(-c2ccccc2)cn1-c1ccccc1`: the solubility (kinetic) amounted to 14.9 µg/mL (≈ 59 µM).

In turn, `CC(=O)c1cccc(NC(=O)C2CC(=O)N(C3CCCC3)C2)c1` (centres undefined) displayed a solubility (kinetic) of over 47.2 µg/mL.

For the molecule `CC1(C)Cc2c(C#N)c(SCC(=O)O)nc(N3CCOCC3)c2CO1`, the solubility (kinetic) was 52.7 µg/mL (≈ 145 µM).

`COc1ccccc1C1CCN(C(=O)c2ccc(C(C)(C)C)cc2)CC1`: the solubility (kinetic) amounted to 3.1 µg/mL (≈ 8.82 µM).

`CSc1nc(-c2ccc(C)cc2)nc(N)c1C#N` had a kinetic solubility of under 0.1 µg/mL.

As for `Cc1nc2c(C#N)cnn2c2c1CCN2CC1CCCO1` (centres undefined), the kinetic solubility is over 42.5 µg/mL.

`CN(C(=O)CSc1nc2ccccc2c(=O)n1-c1ccccc1Cl)C1CCS(=O)(=O)C1` (centres undefined) came in with a kinetic solubility of 71.1 µg/mL (≈ 149 µM).

Molecule `CCOC(=O)N1CCC(NC(=O)c2ccc(Cl)cc2)CC1` yielded a kinetic solubility of over 46.6 µg/mL.

The molecule `O=c1c2ccccc2ncn1-c1ccc([N+](=O)[O-])cc1Cl` returned a solubility (kinetic) of 17 µg/mL (≈ 56.3 µM).

In the case of `Cc1cccc(OCC(O)CN2CCc3ccccc3C2)c1.Cl` (centres undefined), the kinetic solubility is over 50.1 µg/mL.

Take `CCOc1ccc(S(=O)(=O)N2CCN(C(=O)c3ccncc3)CC2)cc1`: the kinetic solubility was over 56.3 µg/mL.

In turn, `CC(NC(=O)c1cnccn1)c1ccc(S(N)(=O)=O)cc1` (centres undefined) came in with a solubility (kinetic) of over 46 µg/mL.

`Cc1cc(C)c(S(=O)(=O)N2CCN(C3CC(=O)N(c4ccccc4Cl)C3=O)CC2)c(C)c1` (centres undefined) showed a solubility (kinetic) of 16.7 µg/mL (≈ 35.1 µM).

`CCOC(=O)CNC(=O)C12CC3CC(C1)CC(c1ccc(C)cc1)(C3)C2` came in with a solubility (kinetic) of 3.9 µg/mL (≈ 11 µM).

Consider `CC(=O)c1c(C)[nH]c(C(=O)Nc2cccc(C(F)(F)F)c2)c1C`, for which the kinetic solubility was 2 µg/mL (≈ 6.17 µM).

With `COc1ccc(NC2(c3ccccc3)OC(=O)c3ccccc32)cc1` (centres undefined), the kinetic solubility was 1.5 µg/mL (≈ 4.53 µM).

In the case of `Cc1cc(C(=O)OCC(=O)N2CCOCC2)c(C)n1-c1ccccc1`, the solubility (kinetic) turned out to be 48.6 µg/mL (≈ 142 µM).

For the molecule `O=C(/C=C/c1cccc(Br)c1)NCc1ccncc1`, the solubility (kinetic) stood at 37.2 µg/mL (≈ 117 µM).

Molecule `Cc1cccc(NCc2ccc(O)c3ncccc23)c1C` showed a solubility (kinetic) of over 41.8 µg/mL.

`O=C(CNC(=O)c1ccc(Br)o1)NCc1ccccc1`: the solubility (kinetic) is over 50.6 µg/mL.

`O=C(/C=C/c1ccc(F)cc1)c1ccc(N2CCOCC2)cc1` yielded a kinetic solubility of 2.3 µg/mL (≈ 7.39 µM).

Consider `C/C(=N/OC(=O)c1ccc(C)cc1)C(=O)c1ccc(Br)cc1`, for which the solubility (kinetic) was found to be 33.9 µg/mL (≈ 94.1 µM).

The molecule `O=C(CNC(=O)C1CCCCC1)Nc1ccc(F)c(Cl)c1` came in with a solubility (kinetic) of 8.2 µg/mL (≈ 26.2 µM).

Regarding `CC(=O)c1ccc(NC(=O)C(C)Sc2nnc(-c3ccncc3)n2C2CC2)cc1` (centres undefined), the solubility (kinetic) was over 61.1 µg/mL.

`O=C(CSc1cccc[n+]1[O-])NC1CCCCC1`: the kinetic solubility is over 40 µg/mL.

Turning to `COc1ccc(C2NC(=O)N(C)C(C)=C2[N+](=O)[O-])cc1` (centres undefined), the kinetic solubility was over 41.6 µg/mL.

In turn, `COc1cc(NS(=O)(=O)c2ccc(NC(=O)/C=C/C(=O)O)cc2)nc(OC)n1` showed a solubility (kinetic) of over 61.3 µg/mL.

`Fc1ccc(OCc2nc(-c3cccs3)no2)cc1` showed a kinetic solubility of 0.8 µg/mL (≈ 2.9 µM).

In turn, `COc1ccc(C(=O)Nc2nc3ccc(OC)cc3s2)cc1` came in with a kinetic solubility of 1.4 µg/mL (≈ 4.45 µM).

As for `CC(=O)Nc1ccc(S(=O)(=O)NCC(=O)OCC(=O)c2ccc[nH]2)cc1`, the kinetic solubility was over 56.9 µg/mL.

`Cc1ccc(C(=O)N2CCOCC2)c(F)c1F` came in with a kinetic solubility of 33.9 µg/mL (≈ 141 µM).

For `Cc1ccc(C2CC(=O)NC(SCC(N)=O)=C2C#N)s1` (centres undefined), the kinetic solubility was over 46.1 µg/mL.

As to `Cc1ccc2nc(SC(C)C(=O)N3CC(C)OC(C)C3)[nH]c2c1` (centres undefined), the solubility (kinetic) amounted to 49.4 µg/mL (≈ 148 µM).

Regarding `CCn1c(=O)c([N+](=O)[O-])c(NCc2ccco2)c2ccccc21`, the solubility (kinetic) is 0.6 µg/mL (≈ 1.92 µM).

With `O=C(CC1Sc2ccccc2NC1=O)NCc1ccc(Cl)cc1` (centres undefined), the kinetic solubility is under 0.4 µg/mL.

The molecule `CC(C)n1c(O)c(C=NCc2cccnc2)c(=O)[nH]c1=S` yielded a solubility (kinetic) of over 45.7 µg/mL.

The molecule `CC(=O)N1CCN(C(=O)COC(=O)/C=C/c2ccccc2[N+](=O)[O-])CC1` returned a kinetic solubility of over 54.2 µg/mL.

For `COCc1cc(=O)[nH]c(/N=C(\N)Nc2cccc(Cl)c2)n1`, the kinetic solubility came out at 2.7 µg/mL (≈ 8.77 µM).

As to `CCS(=O)(=O)Nc1ccccc1C(N)=O`, the solubility (kinetic) is over 34.2 µg/mL.

For the molecule `CC(O/N=C(\N)c1ccccc1)C(=O)Nc1cccc(C(F)(F)F)c1` (centres undefined), the kinetic solubility is over 52.7 µg/mL.

In turn, `O=S(=O)(Nc1cccnc1)c1ccc(F)cc1` came in with a solubility (kinetic) of over 37.8 µg/mL.

In the case of `CC1Cc2ccccc2N1C(=O)CN1CCCCC1.Cl` (centres undefined), the solubility (kinetic) is 39.3 µg/mL.

`O=[N+]([O-])c1cccc2c(N3CCOCC3)ccnc12` yielded a kinetic solubility of over 38.9 µg/mL.

For the molecule `Cc1cc(NC(=O)CSc2nnc(-c3ccco3)n2C)no1`, the kinetic solubility is over 47.9 µg/mL.

On to `O=C(c1ccc([N+](=O)[O-])o1)N1CCCCCC1`, for which the kinetic solubility is over 35.7 µg/mL.

`COc1cccc(N2CCN(c3nc(C)cc(=O)[nH]3)CC2)c1` returned a solubility (kinetic) of 44.6 µg/mL (≈ 148 µM).

Turning to `CC(C)(C)c1ccc(SCCc2ccncc2)cc1`, the solubility (kinetic) was determined as 6.5 µg/mL (≈ 23.9 µM).

Turning to `CN1CCN(CCCNC(=S)Nc2ccc(F)c(Cl)c2)CC1`, the solubility (kinetic) was found to be 43 µg/mL (≈ 125 µM).

Turning to `O=Cc1sc([O-])nc1-[n+]1ccc2ccccc2c1`, the solubility (kinetic) stood at 5.1 µg/mL (≈ 19.9 µM).

In the case of `CCc1cc2c(N[C@@H](Cc3ccccc3)C(=O)O)ncnc2s1`, the solubility (kinetic) was over 49.1 µg/mL.

Regarding `O=C(O)CC1(CC(=O)NCc2cccc(Cl)c2)CCCCC1`, the kinetic solubility was over 48.6 µg/mL.

For the molecule `CC1CCCCC1NC(=O)CN1C(=O)c2ccccc2S1(=O)=O` (centres undefined), the kinetic solubility came to 25.7 µg/mL (≈ 76.4 µM).

For `O=C(Cc1ccsc1)NCc1ccccc1F`, the solubility (kinetic) was over 37.4 µg/mL.

`CC(C)CCSc1nnc(N)s1` had a kinetic solubility of over 30.5 µg/mL.

As for `CCc1nccn1S(=O)(=O)c1ccccc1[N+](=O)[O-]`, the solubility (kinetic) was over 42.2 µg/mL.

For the molecule `O=C(NCCc1ccccc1)c1cnc(Cl)c(Cl)c1`, the kinetic solubility is 11.6 µg/mL (≈ 39.3 µM).

`Cc1nc(N)c(Br)c(C)c1Br`: the solubility (kinetic) was 6.2 µg/mL (≈ 22.1 µM).

In turn, `O=C(CN1C(=O)c2ccccc2C1=O)Nc1ccccc1N1CCOCC1` had a solubility (kinetic) of over 54.8 µg/mL.

Consider `O=C(COC(=O)c1ccc(O)cc1)Nc1ncc(Cl)cc1Cl`, for which the kinetic solubility was 31.5 µg/mL (≈ 92.3 µM).

Consider `O=C(c1ccc(S(=O)(=O)Nc2ccccc2)cc1)N1CCC1`, for which the kinetic solubility was over 47.5 µg/mL.

As to `CNC(=O)CSc1nnc(-c2cnccn2)n1C`, the solubility (kinetic) was over 39.6 µg/mL.

The molecule `CC1C(=O)C(C)C(c2ccc(Cl)cc2)NC1c1ccc(Cl)cc1.Cl` (centres undefined) returned a kinetic solubility of under 0.8 µg/mL.

`Clc1ccc(-c2nc(-c3cnccn3)no2)cc1` yielded a solubility (kinetic) of 3.2 µg/mL (≈ 12.4 µM).

On to `CC(=O)Nc1ccc(C(=O)COC(=O)C2CC2C)c(F)c1` (centres undefined), for which the solubility (kinetic) was over 44 µg/mL.

As for `N#CC1(NC(=O)Cn2cc(C(F)(F)F)ccc2=O)CCCC1`, the solubility (kinetic) is over 47 µg/mL.

`O=C(NCCCNC(=O)c1ccccc1Cl)c1cnccn1` gave a solubility (kinetic) of 43.5 µg/mL (≈ 136 µM).

In turn, `O=c1[nH]c(/C=C\c2ccccc2F)nc(O)c1[N+](=O)[O-]` came in with a solubility (kinetic) of over 41.6 µg/mL.

`O=C(COc1ccc(Br)cc1)OCC(=O)N1CCOCC1` showed a solubility (kinetic) of over 53.7 µg/mL.

As for `Nc1cc[n+](CC(=O)c2ccccc2)cc1.[Br-]`, the kinetic solubility was over 44 µg/mL.

Consider `NS(=O)(=O)c1ccc(NC(=S)N2CCc3ccccc32)cc1`, for which the solubility (kinetic) was determined as 2.1 µg/mL (≈ 6.3 µM).

`CN(CC1COc2ccccc2O1)C(=O)CSc1nncs1` (centres undefined) came in with a solubility (kinetic) of over 50.6 µg/mL.

`C=CCn1c(O)c(/C=N/N2CCCCC2)c(=O)[nH]c1=O` yielded a solubility (kinetic) of over 41.7 µg/mL.

The molecule `CCCN1CCC[C@H](c2cccc(O)c2)C1.Cl` gave a solubility (kinetic) of over 38.4 µg/mL.
